The conditions of data set [1]: many individuals; cited from earlier work.
The next data set has as its target T1, debranching enzyme (Homo sapiens, UniProt P35573).
T1 construct: As enzyme source erythrocytes are used since they contain no other enzymes that can degrade glycogen or limit dextrin; from tissue; host or cells: erythrocyte homogenate
As to the kind of experiment: Debranching enzyme activity, glucose release from limit dextrin, erythrocyte homogenate. Format: biochemical. Conditions: read-out: IC50 value for inhibition of Debranching enzyme.

In another data set the target is T2, sucrase (Rattus norvegicus, UniProt P23739).
T2 construct: Membrane homogenates were prepared by extensive washing and homogenization; from tissue; host or cells: rat intestinal membrane homogenate
Description: In vitro sucrase activity, intestinal membrane preparation. Format: biochemical.

In the next data set the target is T3, lactase (Rattus norvegicus, UniProt Q02401).
T3 construct: Membrane homogenates were prepared by extensive washing and homogenization; from tissue; host or cells: rat intestinal membrane homogenate
T3 sequence (Q02401 868-1928): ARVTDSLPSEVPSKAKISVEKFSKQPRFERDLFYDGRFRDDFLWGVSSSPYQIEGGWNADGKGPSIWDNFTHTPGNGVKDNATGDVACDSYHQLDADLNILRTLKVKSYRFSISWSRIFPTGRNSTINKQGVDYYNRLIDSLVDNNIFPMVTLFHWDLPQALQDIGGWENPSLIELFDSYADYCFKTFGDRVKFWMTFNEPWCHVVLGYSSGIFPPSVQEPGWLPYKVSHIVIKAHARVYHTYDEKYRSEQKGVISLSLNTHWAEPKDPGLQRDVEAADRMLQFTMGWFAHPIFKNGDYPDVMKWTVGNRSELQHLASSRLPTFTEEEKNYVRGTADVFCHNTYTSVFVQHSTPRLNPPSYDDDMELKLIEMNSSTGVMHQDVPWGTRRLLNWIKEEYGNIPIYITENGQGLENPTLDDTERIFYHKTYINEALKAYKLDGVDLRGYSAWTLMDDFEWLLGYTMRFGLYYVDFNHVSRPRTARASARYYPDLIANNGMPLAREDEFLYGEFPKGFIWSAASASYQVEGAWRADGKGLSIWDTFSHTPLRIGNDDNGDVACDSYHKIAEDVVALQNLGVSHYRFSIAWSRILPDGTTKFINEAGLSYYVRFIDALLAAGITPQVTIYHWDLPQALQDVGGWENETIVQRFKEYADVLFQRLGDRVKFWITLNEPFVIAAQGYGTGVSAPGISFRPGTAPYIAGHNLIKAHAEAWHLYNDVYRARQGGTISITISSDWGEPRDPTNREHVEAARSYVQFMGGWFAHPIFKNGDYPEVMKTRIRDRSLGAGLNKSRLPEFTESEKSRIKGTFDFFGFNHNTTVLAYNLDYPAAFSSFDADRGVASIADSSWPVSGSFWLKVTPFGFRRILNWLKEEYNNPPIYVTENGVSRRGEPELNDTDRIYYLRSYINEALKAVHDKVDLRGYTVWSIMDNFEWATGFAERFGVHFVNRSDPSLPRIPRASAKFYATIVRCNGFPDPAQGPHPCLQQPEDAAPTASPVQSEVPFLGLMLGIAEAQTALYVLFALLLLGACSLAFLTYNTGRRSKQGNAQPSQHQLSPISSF
Description: In vitro lactase activity, intestinal membrane preparation. Format: biochemical. As to conditions: rat intestinal membranes; read-out: IC50 value for inhibition of Lactase.

Another data set deals with surface GM3. Description: Surface GM3 expression by FACS after 3 days exposure of cells. Format: cell-based. As to conditions: 72 h, cells exposed for 3 days, read-out: IC50 value for surface GM3 reduction.
For data set [2], the system named is C57BL/6J mice (ob-/-, db-/-, +/+). As to the kind of experiment: Oral treatment of obese, diabetes and normal C57BL/6J mice: glucose and water intake. Format: in vivo. As to the method:
Plasma glucose, water intake and food intake were monitored.
Mice (obese-lep^ob (C57B1/6)laHsd-Lep^ob); diabetes-lepr^db (C57B1/6KsOlaHsd—Lepr^db); wildtype (C57B1/6J OlaHsd) and wild type FVB (FVB/NHanHsd) were obtained from Harlan Nederland. Animals were fed with AM-II diet with or without N-(5-adamantane-1-yl-methoxy-pentyl)deoxynojirimycin (Hope Farms Netherlands). Mice were kept in groups of five in each cage. Water consumption and food intake were determined three times weekly per cage. Body weight of individual animals was determined three times weekly. Glucose in plasma was determined with the GOD-PAP method (Merck), and glucose in urine was determined using […] test strips (Roche).

A short description of data set [3]: Plasma level and tissue penetration after oral dosing. Format: in vivo, mice.
Data set [4] can be described thus: Pharmacological features (bioavailability, metabolism). Conditions: in vivo.
Data set [5] is described as follows: Tolerability in animal studies. Format: in vivo.
For data set [6], the system named is cultured adipocytes and muscle cells. As to the kind of experiment: Insulin signaling in cultured adipocytes and muscle cells (GLUT4, deoxyglucose uptake). Format: cell-based. The source says: Initial experiments already confirmed this effect.
A further data set deals with FVB and C57BL/6J mice. As to the kind of experiment: Tissue (glyco)sphingolipid levels in orally treated FVB and C57BL/6J mice (HPLC, TLC).
Data set [7] deals with glycan trimming α-glucosidase. As to conditions: cited from earlier work.
[8] abbreviates: intestinal sucrase, read-out: IC50 value for sucrase.
The mark [9] stands for this setting: obese and diabetes mice, administration by food, dose-dependent.
Setting [10] is: rat intestinal membranes, read-out: IC50 value for inhibition of Sucrase.

Each structure is given as a SMILES string. Read-outs that look alike come from different tables or passages of the source. Some results are limits rather than exact numbers.

T2 sequence (P23739 1014-1841 limits assumed): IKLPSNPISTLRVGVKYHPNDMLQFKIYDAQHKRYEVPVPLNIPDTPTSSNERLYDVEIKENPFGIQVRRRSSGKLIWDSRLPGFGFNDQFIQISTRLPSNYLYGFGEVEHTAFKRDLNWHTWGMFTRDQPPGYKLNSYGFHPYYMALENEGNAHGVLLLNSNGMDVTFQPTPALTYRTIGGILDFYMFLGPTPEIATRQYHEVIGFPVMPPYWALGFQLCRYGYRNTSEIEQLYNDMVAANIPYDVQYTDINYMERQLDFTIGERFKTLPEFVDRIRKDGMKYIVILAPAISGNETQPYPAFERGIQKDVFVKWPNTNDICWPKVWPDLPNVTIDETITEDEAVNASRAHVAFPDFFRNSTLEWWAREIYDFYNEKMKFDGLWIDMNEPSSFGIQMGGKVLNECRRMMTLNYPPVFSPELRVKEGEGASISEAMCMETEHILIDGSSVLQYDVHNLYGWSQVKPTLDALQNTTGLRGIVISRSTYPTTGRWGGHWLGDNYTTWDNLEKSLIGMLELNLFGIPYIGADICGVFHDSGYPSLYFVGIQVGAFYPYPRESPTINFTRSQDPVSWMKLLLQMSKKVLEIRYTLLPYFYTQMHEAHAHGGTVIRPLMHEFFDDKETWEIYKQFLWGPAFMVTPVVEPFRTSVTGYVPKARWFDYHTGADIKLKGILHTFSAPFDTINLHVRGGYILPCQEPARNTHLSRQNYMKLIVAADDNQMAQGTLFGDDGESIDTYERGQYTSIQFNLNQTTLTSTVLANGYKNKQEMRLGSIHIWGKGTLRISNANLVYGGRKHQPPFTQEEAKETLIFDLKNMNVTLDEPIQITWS
T2 sequence (P23739 1-1013 partner limits assumed): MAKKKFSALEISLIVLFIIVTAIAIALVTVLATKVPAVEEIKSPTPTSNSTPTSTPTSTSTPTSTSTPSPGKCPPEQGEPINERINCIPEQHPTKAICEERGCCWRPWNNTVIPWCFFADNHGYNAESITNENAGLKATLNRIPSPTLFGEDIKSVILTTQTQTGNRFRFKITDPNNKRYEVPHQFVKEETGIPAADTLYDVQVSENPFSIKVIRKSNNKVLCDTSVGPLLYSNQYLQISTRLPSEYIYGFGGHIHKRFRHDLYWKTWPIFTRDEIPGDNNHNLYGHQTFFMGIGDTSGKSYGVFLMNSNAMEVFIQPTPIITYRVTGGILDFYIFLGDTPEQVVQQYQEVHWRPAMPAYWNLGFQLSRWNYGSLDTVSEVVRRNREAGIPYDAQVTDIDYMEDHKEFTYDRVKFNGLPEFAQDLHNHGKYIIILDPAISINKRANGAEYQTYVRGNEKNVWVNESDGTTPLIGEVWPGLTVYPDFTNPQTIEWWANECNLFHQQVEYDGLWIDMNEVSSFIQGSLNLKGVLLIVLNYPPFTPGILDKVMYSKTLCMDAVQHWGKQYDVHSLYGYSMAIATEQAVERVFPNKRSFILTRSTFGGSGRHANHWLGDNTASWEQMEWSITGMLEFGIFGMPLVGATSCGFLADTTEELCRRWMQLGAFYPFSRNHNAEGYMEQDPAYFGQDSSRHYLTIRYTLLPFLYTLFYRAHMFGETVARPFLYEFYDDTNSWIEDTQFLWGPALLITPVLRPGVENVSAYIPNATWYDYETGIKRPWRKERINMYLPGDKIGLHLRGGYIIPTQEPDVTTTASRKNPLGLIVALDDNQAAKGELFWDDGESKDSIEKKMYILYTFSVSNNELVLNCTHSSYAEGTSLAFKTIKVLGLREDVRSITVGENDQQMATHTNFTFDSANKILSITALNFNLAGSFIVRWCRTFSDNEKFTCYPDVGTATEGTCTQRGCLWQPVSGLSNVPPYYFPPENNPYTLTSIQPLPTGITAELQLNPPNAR
T1 sequence (P35573 whole entry): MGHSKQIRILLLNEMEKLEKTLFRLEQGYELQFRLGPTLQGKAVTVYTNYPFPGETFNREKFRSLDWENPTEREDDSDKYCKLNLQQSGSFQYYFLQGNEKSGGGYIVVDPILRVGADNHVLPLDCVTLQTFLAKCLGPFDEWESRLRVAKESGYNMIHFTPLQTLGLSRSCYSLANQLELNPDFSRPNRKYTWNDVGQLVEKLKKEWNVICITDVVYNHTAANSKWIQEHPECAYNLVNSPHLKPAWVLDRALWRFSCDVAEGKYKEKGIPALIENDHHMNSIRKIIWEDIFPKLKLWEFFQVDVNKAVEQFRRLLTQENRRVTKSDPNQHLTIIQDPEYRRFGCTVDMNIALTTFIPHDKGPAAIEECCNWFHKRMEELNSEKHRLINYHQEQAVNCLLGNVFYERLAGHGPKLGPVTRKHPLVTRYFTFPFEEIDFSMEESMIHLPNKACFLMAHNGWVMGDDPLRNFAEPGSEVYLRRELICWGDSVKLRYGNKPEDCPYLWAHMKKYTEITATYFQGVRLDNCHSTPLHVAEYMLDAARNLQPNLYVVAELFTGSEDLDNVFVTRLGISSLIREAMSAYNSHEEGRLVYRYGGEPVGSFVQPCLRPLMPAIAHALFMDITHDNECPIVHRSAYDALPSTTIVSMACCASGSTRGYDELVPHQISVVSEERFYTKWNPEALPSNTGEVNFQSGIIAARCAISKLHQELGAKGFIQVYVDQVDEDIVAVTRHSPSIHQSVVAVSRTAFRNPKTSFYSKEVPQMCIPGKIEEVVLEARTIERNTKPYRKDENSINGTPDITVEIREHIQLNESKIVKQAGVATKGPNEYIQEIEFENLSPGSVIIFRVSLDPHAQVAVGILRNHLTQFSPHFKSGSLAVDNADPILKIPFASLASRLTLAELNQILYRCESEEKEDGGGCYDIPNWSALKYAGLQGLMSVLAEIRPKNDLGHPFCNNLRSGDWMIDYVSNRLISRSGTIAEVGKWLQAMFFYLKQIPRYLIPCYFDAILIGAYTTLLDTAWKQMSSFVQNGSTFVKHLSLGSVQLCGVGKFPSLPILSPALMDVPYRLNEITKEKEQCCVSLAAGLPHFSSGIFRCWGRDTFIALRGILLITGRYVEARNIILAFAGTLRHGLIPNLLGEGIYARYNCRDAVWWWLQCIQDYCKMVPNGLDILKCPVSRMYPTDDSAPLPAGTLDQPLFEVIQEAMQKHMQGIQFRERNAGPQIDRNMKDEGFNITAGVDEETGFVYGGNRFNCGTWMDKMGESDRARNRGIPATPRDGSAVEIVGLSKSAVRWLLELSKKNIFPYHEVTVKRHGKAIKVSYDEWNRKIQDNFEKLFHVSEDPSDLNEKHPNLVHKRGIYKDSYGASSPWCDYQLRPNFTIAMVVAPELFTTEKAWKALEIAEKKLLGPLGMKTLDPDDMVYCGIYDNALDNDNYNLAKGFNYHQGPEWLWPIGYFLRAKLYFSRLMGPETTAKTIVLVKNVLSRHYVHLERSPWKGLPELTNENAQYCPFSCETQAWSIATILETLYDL

Turning to `C[C@H]1O[C@H](O[C@H]2[C@H](O)[C@@H](O)[C@@H](O[C@H]3[C@H](O)[C@@H](O)C(O)O[C@@H]3CO)O[C@@H]2CO)[C@H](O)[C@@H](O)[C@@H]1N[C@H]1C=C(CO)[C@@H](O)[C@H](O)[C@H]1O` (some centres unmarked) [Acarbose], the “tolerability (intestinal complaints)” value in data set [1] is “not very well tolerated”.
As for `OC[C@@H]1[C@@H](O)[C@H](O)[C@@H](O)CN1CCCCCOCC12CC3CC(CC(C3)C1)C2` [AMP-DNM, N-(5-adamantane-1-yl-methoxy-pentyl)deoxynojirimycin], the IC50 on debranching enzyme is > 500 µM; on sucrase (setting [8]) it was 4500 µM; at lactase it was 18000 µM; with surface GM3, ~0.25 µM. Besides, the urinary glucose result in [2] (after 2 weeks treatment, particularly ob-/ob- mice at highest dose) is reported as “major reduction”. The blood glucose entry in [2] (normal mice) was “small reduction”; in [2] (setting [9]) it was “reductions”. Also, in data set [2] (setting [9]), the water intake entry is on record as “reductions”. Further, the concentration at 4 weeks in data set [3] (mouse, plasma, oral, 4 weeks 100 mg/kg orally, enzymatic method, read-out: plasma levels) is ~1 µM. Moreover, the brain penetration entry in [3] (oral administration) is “poorly penetrates in the brain”. Also, the metabolism entry in [4] is “lack of metabolism”. Moreover, in data set [4] (po), the oral bioavailability result is recorded as “good oral bioavailability”. Also, in [5], the “overt pathology in animal studies” value was “does not result in any overt pathology”. Further, the “tolerability in animal studies” value in data set [5] was “well tolerated”. Further, the “surface expression of GLUT4” value in data set [6] (adipocytes) is given as “increased”. The deoxyglucose uptake entry in data set [6] (cultured adipocytes and muscle cells) was “increased”. For the same compound, the “brain gangliosides or sulfatide” value in the data set with FVB and C57BL/6J mice (TLC, brain) is listed as “No changes”. The “liver GM3” value in the data set with FVB and C57BL/6J mice (TLC, liver, 2 wks 100 mg/kg) was “marked reduction”. For the same compound, the “muscle GM3” value in the data set with FVB and C57BL/6J mice (TLC, muscle) is “reduction”. Also, in the data set with FVB and C57BL/6J mice (brain, 100 mg/kg oral), the brain galactosylceramide concentration result is “No changes”. The “liver glucosylceramide reduced by” value with FVB and C57BL/6J mice (liver, 100 mg/kg oral) is given as 80%. Besides, the ceramide concentration result with FVB and C57BL/6J mice (liver, muscle and brain, 100 mg/kg oral) is reported as “No changes”. In addition, in the data set with FVB and C57BL/6J mice (muscle, 100 mg/kg oral), the “muscle glucosylceramide reduced by” value was 50%.
For the compound `CCCCN1C[C@H](O)[C@@H](O)[C@H](O)[C@H]1CO` [N-butyl-deoxynojirimycin], the IC50 at sucrase (setting [10]) was 500 µM. Further, the “Ki glycan trimming α-glucosidase in vitro” value in data set [7] is recorded as “sub-μM”.
As to `OCCN1C[C@H](O)[C@@H](O)[C@H](O)[C@H]1CO` [N-hydroxyethyl-deoxynojirimycin], the IC50 is < 5000 µM on sucrase (setting [8]) and 100 µM on sucrase (setting [10]). Besides, the “tolerability (intestinal complaints)” value in data set [1] was “not very well tolerated”.

Values taken from patent publication US7662838B2, “Use of a deoxynojirimycin derivative or a pharmaceutically salt thereof” (Genzyme Corporation, priority 2003, dated 2010).
